Measurements published in patent publication US11440914B2, “Tricyclic amine compounds as CDK2 inhibitors” (Incyte Corporation, priority 2019, dated 2022).

Target: CDK2/Cyclin E1 (Homo sapiens (Human), UniProt P24941)
Assay: CDK2/Cyclin E1 HTRF enzyme activity assay
Assay type: biochemical
Conditions: 1 mM ATP
Procedure: CDK2/Cyclin E1 enzyme activity assays utilize full-length human CDK2 co-expressed as N-terminal GST-tagged protein with FLAG-Cyclin E1 in a baculovirus expression system (Carna Product Number 04-165). Assays are conducted in white 384-well polystyrene plates in a final reaction volume of 8 μL. CDK2/Cyclin E1 (0.25 nM) is incubated with compounds (40 nL serially diluted in DMSO) in the presence of ATP (50 μM or 1 mM) and 50 nM ULight™-labeled eIF4E-binding protein 1 (THR37/46) peptide (PerkinElmer) in assay buffer (containing 50 mM HEPES pH 7.5, 1 mM EGTA, 10 mM MgCl2, 2 mM DTT, 0.05 mg/ml BSA, and 0.01% Tween 20) for 60 minutes at room temperature. The reactions are stopped by the addition of EDTA and Europium-labeled anti-phospho-4E-BP1 antibody (PerkinElmer), for a final concentration of 15 mM and 1.5 nM, respectively. HTRF signals are read after 1 hour at room temperature on a PHERAstar FS plate reader (BMG Labtech). Data is analyzed with IDBS XLFit and GraphPad Prism 5.0 software using a three or four parameter dose response curve to determine IC50 for each compound.

Compound	IC50
CCS(=O)(=O)N1CCC(Nc2ncc3c(n2)-c2c(nc(C)n2C)CC3)CC1 [Example 1, N-(1-(Ethylsulfonyl)piperidin-4-yl)-1,2-dimethyl-4,5-dihydro-1H-imidazo[4,5-h]quinazolin-8-amine]	≤ 50 nM
Cc1nc2c(n1C)-c1nc(NC3CCN(S(=O)(=O)C4CC4)CC3)ncc1CC2 [Example 2, N-(1-(Cyclopropylsulfonyl)piperidin-4-yl)-1,2-dimethyl-4,5-dihydro-1H-imidazo[4,5-h]quinazolin-8-amine]	≤ 50 nM
Cc1nc2c(n1C)-c1nc(NC3CCN(S(=O)(=O)c4cnn(C)c4)CC3)ncc1CC2 [Example 3, 1,2-Dimethyl-N-(1-((1-methyl-1H-pyrazol-4-yl)sulfonyl)piperidin-4-yl)-4,5-dihydro-1H-imidazo[4,5-h]quinazolin-8-amine]	≤ 50 nM
Cc1nc2c(n1C)-c1nc(NC3CCN(S(=O)(=O)c4cn[nH]c4)CC3)ncc1CC2 [Example 4, N-(1-((1H-Pyrazol-4-yl)sulfonyl)piperidin-4-yl)-1,2-dimethyl-4,5-dihydro-1H-imidazo[4,5-h]quinazolin-8-amine]	≤ 50 nM
Cc1nc2c(n1C)-c1nc(NC3CCN(S(=O)(=O)c4cccc(C#N)c4)CC3)ncc1CC2 [Example 5, 3-((4-((1,2-Dimethyl-4,5-dihydro-1H-imidazo[4,5-h]quinazolin-8-yl)amino)piperidin-1-yl)sulfonyl)benzonitrile]	≤ 50 nM
Cc1nc(S(=O)(=O)N2CCC(Nc3ncc4c(n3)-c3c(nc(C)n3C)CC4)CC2)cn1C [Example 6, N-(1-((1,2-Dimethyl-1H-imidazol-4-yl)sulfonyl)piperidin-4-yl)-1,2-dimethyl-4,5-dihydro-1H-imidazo[4,5-h]quinazolin-8-amine]	≤ 50 nM
Cc1nc2c([nH]1)-c1nc(NC3CCN(S(C)(=O)=O)CC3)ncc1CC2 [Example 7, 2-Methyl-N-(1-(methylsulfonyl)piperidin-4-yl)-4,5-dihydro-1H-imidazo[4,5-h]quinazolin-8-amine]	50 to 200 nM
Cc1nc2c(n1Cc1ccccc1)-c1nc(NC3CCN(S(C)(=O)=O)CC3)ncc1CC2 [Example 8, 1-Benzyl-2-methyl-N-(1-(methylsulfonyl)piperidin-4-yl)-4,5-dihydro-1H-imidazo[4,5-h]quinazolin-8-amine]	≤ 50 nM
Cn1cc2c(n1)CCc1cnc(NC3CCN(S(C)(=O)=O)CC3)nc1-2 [Example 9, 8-Methyl-N-(1-(methylsulfonyl)piperidin-4-yl)-6,8-dihydro-5H-pyrazolo[3,4-h]quinazolin-2-amine]	50 to 200 nM
Cn1cc2c(n1)COc1cnc(NC3CCN(S(C)(=O)=O)CC3)nc1-2 [Example 10, 8-Methyl-N-(1-(methylsulfonyl)piperidin-4-yl)-6,8-dihydropyrazolo[4′,3′:4,5]pyrano[3,2-d]pyrimidin-2-amine]	200 to 500 nM
Cc1c2c(nn1-c1c(F)cccc1F)CCc1cnc(NC3CCN(S(C)(=O)=O)CC3)nc1-2 [Example 11, 8-(2,6-Difluorophenyl)-9-methyl-N-(1-(methylsulfonyl)piperidin-4-yl)-6,8-dihydro-5H-pyrazolo[3,4-h]quinazolin-2-amine]	≤ 50 nM
Cn1nc2c(c1C1CC1)-c1nc(NC3CCN(S(C)(=O)=O)CC3)ncc1CC2 [Example 12, 9-Cyclopropyl-8-methyl-N-(1-(methylsulfonyl)piperidin-4-yl)-6,8-dihydro-5H-pyrazolo[3,4-h]quinazolin-2-amine]	≤ 50 nM
CC(C)c1c2c(nn1C)CCc1cnc(NC3CCN(S(C)(=O)=O)CC3)nc1-2 [Example 13, 9-Isopropyl-8-methyl-N-(1-(methylsulfonyl)piperidin-4-yl)-6,8-dihydro-5H-pyrazolo[3,4-h]quinazolin-2-amine]	≤ 50 nM
CS(=O)(=O)N1CCC(Nc2ncc3c(n2)-c2c(nn(C4CCOC4)c2C2CC2)CC3)CC1 (stereo not shown) [Example 14, 9-Cyclopropyl-N-(1-(methylsulfonyl)piperidin-4-yl)-8-(tetrahydrofuran-3-yl)-6,8-dihydro-5H-pyrazolo[3,4-h]quinazolin-2-amine]	≤ 50 nM
CS(=O)(=O)N1CCC(Nc2ncc3c(n2)-c2c(nn(CCO)c2C2CC2)CC3)CC1 [Example 15, 2-(9-Cyclopropyl-2-((1-(methylsulfonyl)piperidin-4-yl)amino)-5,6-dihydro-8H-pyrazolo[3,4-h]quinazolin-8-yl)ethan-1-ol]	≤ 50 nM
CS(=O)(=O)N1CCC(Nc2ncc3c(n2)-c2c(nn(C4CC4)c2C2CC2)CC3)CC1 [Example 16, 8,9-Dicyclopropyl-N-(1-(methylsulfonyl)piperidin-4-yl)-6,8-dihydro-5H-pyrazolo[3,4-h]quinazolin-2-amine]	≤ 50 nM

Compound	IC50
Cc1nc2c(n1C)-c1nc(NC3CCN(S(C)(=O)=O)CC3)ncc1CC2 [Example 17, 1,2-Dimethyl-N-(1-(methylsulfonyl)piperidin-4-yl)-4,5-dihydro-1H-imidazo[4,5-h]quinazolin-8-amine]	≤ 50 nM
CC(C)c1nc2c(n1C)-c1nc(NC3CCN(S(C)(=O)=O)CC3)ncc1CC2 [Example 18, 2-Isopropyl-1-methyl-N-(1-(methylsulfonyl)piperidin-4-yl)-4,5-dihydro-1H-imidazo[4,5-h]quinazolin-8-amine]	≤ 50 nM
Cc1nc2c(n1C1CC1)-c1nc(NC3CCN(S(C)(=O)=O)CC3)ncc1CC2 [Example 19, 1-Cyclopropyl-2-methyl-N-(1-(methylsulfonyl)piperidin-4-yl)-4,5-dihydro-1H-imidazo[4,5-h]quinazolin-8-amine]	≤ 50 nM
CS(=O)(=O)N1CCC(Nc2ncc3c(n2)-c2c(ncn2C2CC2)CC3)CC1 [Example 20, 1-Cyclopropyl-N-(1-(methylsulfonyl)piperidin-4-yl)-4,5-dihydro-1H-imidazo[4,5-h]quinazolin-8-amine]	≤ 50 nM
CS(=O)(=O)N1CCC(Nc2ncc3c(n2)-c2c(nc(Br)n2C2CC2)CC3)CC1 [Example 21, 2-Bromo-1-cyclopropyl-N-(1-(methylsulfonyl)piperidin-4-yl)-4,5-dihydro-1H-imidazo[4,5-h]quinazolin-8-amine]	≤ 50 nM
CS(=O)(=O)N1CCC(Nc2ncc3c(n2)-c2c(nc(-c4ccccc4)n2C2CC2)CC3)CC1 [Example 22, 1-Cyclopropyl-N-(1-(methylsulfonyl)piperidin-4-yl)-2-phenyl-4,5-dihydro-1H-imidazo[4,5-h]quinazolin-8-amine]	≤ 50 nM
CS(=O)(=O)N1CCC(Nc2ncc3c(n2)-c2c(nc(-c4ccccc4F)n2C2CC2)CC3)CC1 [Example 23, 1-Cyclopropyl-2-(2-fluorophenyl)-N-(1-(methylsulfonyl)piperidin-4-yl)-4,5-dihydro-1H-imidazo[4,5-h]quinazolin-8-amine]	≤ 50 nM
Cc1nn(C)cc1-c1nc2c(n1C1CC1)-c1nc(NC3CCN(S(C)(=O)=O)CC3)ncc1CC2 [Example 24, 1-Cyclopropyl-2-(1,3-dimethyl-1H-pyrazol-4-yl)-N-(1-(methylsulfonyl)piperidin-4-yl)-4,5-dihydro-1H-imidazo[4,5-h]quinazolin-8-amine]	≤ 50 nM
Cc1nc2c(n1C1CC1)-c1nc(NC3CCN(S(C)(=O)=O)CC3)ncc1CC2(C)C [Example 25, 1-Cyclopropyl-2,4,4-trimethyl-N-(1-(methylsulfonyl)piperidin-4-yl)-4,5-dihydro-1H-imidazo[4,5-h]quinazolin-8-amine]	≤ 50 nM
CS(=O)(=O)N1CCC(Nc2ncc3c(n2)-c2c(ncn2C2CC2)CO3)CC1 [Example 26, 1-Cyclopropyl-N-(1-(methylsulfonyl)piperidin-4-yl)-1,4-dihydroimidazo[4′,5′:4,5]pyrano[3,2-d]pyrimidin-8-amine]	≤ 50 nM
Cc1nc2c(n1C(C)C)-c1nc(NC3CCN(S(C)(=O)=O)CC3)ncc1CC2 [Example 27, 1-Isopropyl-2-methyl-N-(1-(methylsulfonyl)piperidin-4-yl)-4,5-dihydro-1H-imidazo[4,5-h]quinazolin-8-amine]	≤ 50 nM
Cc1nc2c(n1C)-c1nc(N[C@H]3CCN(S(=O)(=O)c4cn(C)cn4)C[C@H]3C)ncc1CC2 [Example 28, 1,2-Dimethyl-N-((3R,4S)-3-methyl-1-((1-methyl-1H-imidazol-4-yl)sulfonyl)piperidin-4-yl)-4,5-dihydro-1H-imidazo[4,5-h]quinazolin-8-amine]	≤ 50 nM
Cc1nc2c(n1C)-c1nc(N[C@H]3CCN(S(=O)(=O)c4cccc(N5CCN(C)CC5)n4)C[C@H]3C)ncc1CC2 [Example 29, 1,2-Dimethyl-N-((3R,4S)-3-methyl-1-((6-(4-methylpiperazin-1-yl)pyridin-2-yl)sulfonyl)piperidin-4-yl)-4,5-dihydro-1H-imidazo[4,5-h]quinazolin-8-amine]	≤ 50 nM
Cc1nc2c(n1C)-c1nc(N[C@H]3CCN(S(=O)(=O)c4ccc(N5CC[C@@H](O)C5)nc4)C[C@H]3C)ncc1CC2 [Example 30, (R)-1-(5-(((3R,4S)-4-((1,2-Dimethyl-4,5-dihydro-1H-imidazo[4,5-h]quinazolin-8-yl)amino)-3-methylpiperidin-1-yl)sulfonyl)pyridin-2-yl)pyrrolidin-3-ol]	≤ 50 nM
Cc1nc2c(n1C1CC1)-c1nc(N[C@H]3CCN(S(=O)(=O)c4cn(C)cn4)C[C@H]3C)ncc1CC2 [Example 31, 1-Cyclopropyl-2-methyl-N-((3R,4S)-3-methyl-1-((1-methyl-1H-imidazol-4-yl)sulfonyl)piperidin-4-yl)-4,5-dihydro-1H-imidazo[4,5-h]quinazolin-8-amine]	≤ 50 nM
